In patent publication EP2649091B1, “IMMUNE RESTRICTED PEPTIDES WITH INCREASED EFFICACY” (Stichting Het Nederlands Kanker Instituut, priority 2010, dated 2012):

How the values were obtained:
[1] = tested on: CD8+ T cells from Influenza A positive donors sorted using tetramers containing HLA A2.1::[…]; assay type: cell-based
HLA-A0201 = HLA-A0201 (Homo sapiens, UniProt P04439, D140Y/D185E/D98H/E176V/E277Q/G131W/G231S/I119V/I121R/I166T/I218V/L300P/L318F/N151K/N90K/P208A/P217A/Q86G/Q94H/R138H/R169H/T345S); assay type: binding
[2] = tested on: CD8+ T cells from Influenza A positive donors sorted using tetramers containing HLA A2.1::[…]; assay type: cell-based; remark: listed apart in the source
[3] = tested on: LLFGLALIEV-specific CD8+ T cells; assay: Mouse vaccination study, tetramer analysis of blood, LLFGLALIEV; assay type: in vivo; conditions: mice vaccinated with 100 µg peptide with IFA and CpG, all times after day one, versus LLFGLALIEV vaccinated mice
Text: Three mouse vaccination studies were done using three different wild-type epitopes. In all cases, mice were vaccinated with the peptide supplemented with incomplete freunds ajuvant (IFA) and CpG. Analysis was done by analyzing blood samples with tetramers loaded with wild-type peptide in all cases.
This was done for both groups of mice.

[4] = tested on: T cell line specific for LLFGLALIEV; assay: T cell activation, FACS based interferon-gamma production assay, Mage-C2 LLFGLALIEV
Text: (§1) FACS was employed to obtain results.
T cell activation was quantified using the FACS based interferon-gamma production assay as materials and methods section. Table 10 HLA binding and T cell activation of modified Melanoma-associated protein C2 (pp-qq) epitopes used in vaccination studies.

[5] = tested on: CD8+ T cells with SVYDFFVWL (Melanoma, TRP-2, residues 180-188) specific T cell receptor; assay: T cell activation time course assay, IFNγ production by FACS, TRP-2 epitope; assay type: cell-based; conditions: 48H, peptide 50 picomolar
Experimental: as §1
Also for this epitope, an IFNγ expression time-course experiment was performed. The two distinguishing time points 24H and 48H were taken along at peptide concentrations of 5·10^3 pM, 50 pM and 0.5 pM.

Substance: [am-phg][BUTALA]LGFV[4-FPHE]TL
- % Positive TCR recognition % TCR [1]: 3.20%
- Geometric mean IFN in arbitrary fluorescence units Geo TCR [1]: 217 arbitrary fluorescence units
- % inhibition at T=4H and T=24H FP 4h (HLA-A0201): 83%
- % inhibition at T=4H and T=24H FP 24h (HLA-A0201): 84%
- IC50 Ratio (HLA-A0201): 3
- % CD8+ T cells producing IFN-γ % IFN [2]: 2.6%
- Geometric mean IFN-γ in arbitrary fluorescence units Geo IFN [2]: 266 arbitrary fluorescence units

Substance: [am-phg][CpALA]LGFVFTL
- % Positive TCR recognition % TCR [1]: 3.17%
- Geometric mean IFN in arbitrary fluorescence units Geo TCR [1]: 150 arbitrary fluorescence units
- % inhibition at T=4H and T=24H FP 24h (HLA-A0201): 91%
- IC50 Ratio (HLA-A0201): 2
- % CD8+ T cells producing IFN-γ % IFN [2]: 2.2%
- Geometric mean IFN-γ in arbitrary fluorescence units Geo IFN [2]: 259 arbitrary fluorescence units

Substance: [am-phg]ILGFV[4-FPHE]TL
- % Positive TCR recognition % TCR [1]: 3.27%
- Geometric mean IFN in arbitrary fluorescence units Geo TCR [1]: 197 arbitrary fluorescence units
- % inhibition at T=4H and T=24H FP 4h (HLA-A0201): 92%
- % inhibition at T=4H and T=24H FP 24h (HLA-A0201): 93%
- IC50 Ratio (HLA-A0201): 6
- % CD8+ T cells producing IFN-γ % IFN [2]: 2.2%
- Geometric mean IFN-γ in arbitrary fluorescence units Geo IFN [2]: 208 arbitrary fluorescence units

Substance: [PHG][NLE]LGFVFTL
- % Positive TCR recognition % TCR [1]: 3.58%
- Geometric mean IFN in arbitrary fluorescence units Geo TCR [1]: 328 arbitrary fluorescence units
- % inhibition at T=4H and T=24H FP 4h (HLA-A0201): 77%
- % inhibition at T=4H and T=24H FP 24h (HLA-A0201): 77%
- IC50 Ratio (HLA-A0201): 4
- % CD8+ T cells producing IFN-γ % IFN [2]: 2.7%
- Geometric mean IFN-γ in arbitrary fluorescence units Geo IFN [2]: 238 arbitrary fluorescence units

Substance: [am-phg][NLE]LGFV[4-FPHE]TL
- % Positive TCR recognition % TCR [1]: 3.40%
- Geometric mean IFN in arbitrary fluorescence units Geo TCR [1]: 302 arbitrary fluorescence units
- % inhibition at T=4H and T=24H FP 4h (HLA-A0201): 82%
- % inhibition at T=4H and T=24H FP 24h (HLA-A0201): 83%
- IC50 Ratio (HLA-A0201): 3
- % CD8+ T cells producing IFN-γ % IFN [2]: 3.0%
- Geometric mean IFN-γ in arbitrary fluorescence units Geo IFN [2]: 221 arbitrary fluorescence units

Substance: [am-phg][NVA]LGFV[4-FPHE]TL
- % Positive TCR recognition % TCR [1]: 3.54%
- Geometric mean IFN in arbitrary fluorescence units Geo TCR [1]: 143 arbitrary fluorescence units
- % inhibition at T=4H and T=24H FP 24h (HLA-A0201): 97%
- IC50 Ratio (HLA-A0201): 2
- % CD8+ T cells producing IFN-γ % IFN [2]: 3.4%
- Geometric mean IFN-γ in arbitrary fluorescence units Geo IFN [2]: 242 arbitrary fluorescence units

Substance: [PHG][2-AOC]FGLALIEV
- LLFGLALIEV-specific CD8+ T cells (specific T cell numbers) [3]: higher
- % Positive TCR recognition % TCR [4]: 13.7%
- Geometric mean in arbitrary fluorescence units Geo TCR [4]: 108 arbitrary fluorescence units

Substance: [am-phg][CpALA]LGFV[4-FPHE]TL
- % Positive TCR recognition % TCR [1]: 3.26%
- Geometric mean IFN in arbitrary fluorescence units Geo TCR [1]: 208 arbitrary fluorescence units
- % inhibition at T=4H and T=24H FP 4h (HLA-A0201): 96%
- % inhibition at T=4H and T=24H FP 24h (HLA-A0201): 96%
- IC50 Ratio (HLA-A0201): 5
- % CD8+ T cells producing IFN-γ % IFN [2]: 2.8%
- Geometric mean IFN-γ in arbitrary fluorescence units Geo IFN [2]: 243 arbitrary fluorescence units

Substance: [am-phg][NVA]YDFFVWL (N-terminal am-phg and NVA)
- % CD8+ T cells producing IFN-γ [5]: significantly above background level
